Assay results published in paper PMC3530649 (Journal of the American Chemical Society, 2012).

T1: (E)-β-farnesene synthase (EBFS) (Mentha x piperita, UniProt O48935)
T1 sequence (O48935 1-550): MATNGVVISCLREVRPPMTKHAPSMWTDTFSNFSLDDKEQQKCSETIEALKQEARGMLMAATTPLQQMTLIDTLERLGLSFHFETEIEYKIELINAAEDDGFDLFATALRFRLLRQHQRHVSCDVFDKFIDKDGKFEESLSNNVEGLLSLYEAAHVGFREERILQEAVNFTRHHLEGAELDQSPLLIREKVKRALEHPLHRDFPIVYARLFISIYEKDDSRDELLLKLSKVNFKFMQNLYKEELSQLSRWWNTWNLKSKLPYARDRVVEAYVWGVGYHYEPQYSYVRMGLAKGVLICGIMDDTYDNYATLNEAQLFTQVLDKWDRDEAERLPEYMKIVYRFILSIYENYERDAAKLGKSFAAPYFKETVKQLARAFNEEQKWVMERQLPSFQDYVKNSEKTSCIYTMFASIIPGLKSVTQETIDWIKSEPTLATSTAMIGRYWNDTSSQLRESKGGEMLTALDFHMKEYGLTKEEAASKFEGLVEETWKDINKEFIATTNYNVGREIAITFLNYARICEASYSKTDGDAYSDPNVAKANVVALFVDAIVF


How the values were obtained:
[1] = target: T1, (E)-β-farnesene synthase (EBFS); assay: steady-state inhibition, radiometric microassay; format: biochemical
[2] = substrate: C=CC(C)(CC/C=C(\C)CCC=C(C)C)OP(=O)(O)OP(=O)(O)O; assay: steady-state kinetics, radiometric microassay; format: biochemical, Mentha x piperita; conditions: labelled compound ((3RS)-(1Z)-trans-[1-3H1]NDP), racemic
[3] = substrate: CC(C)=CCC/C(C)=C/CC/C(C)=C(\F)COP(=O)(O)OP(=O)(O)O; assay: steady-state kinetics, radiometric microassay; format: biochemical, Mentha x piperita; conditions: labelled compound ((1RS)-2-fluoro[1-3H1]FDP)
[4] = substrate: CC(C)=CCC/C(C)=C/CC/C(C)=C/CO[P@@](=O)(O)OP(=O)(O)O; assay: purified protein; conditions: labelled compound (tritiated)

| Ki [1] [nM] | Molecule | Km [2] [µM] | Km [3] [µM] | Km [4] [µM] |
| --- | --- | --- | --- | --- |
| 1300 ± 100 | CC(C)=CCC/C(C)=C/CC/C(C)=C(\F)COP(=O)(O)OP(=O)(O)O [2F-3, (2Z,6E)-2-fluorofarnesyl diphosphate] | – | – | – |
| 1600 ± 200 | CC(C)=CCC/C(C)=C/CC/C(=C/COP(=O)(O)OP(=O)(O)O)C(F)(F)F [3CF3-3, (6E)-3-trifluoromethylfarnesyl diphosphate] | – | – | – |
| 2300 ± 200 | CC(C)=CCC/C(C)=C/CCC(=CCOP(=O)(O)OP(=O)(O)O)CF [3CH2F-3, (6E)-3-fluoromethylfarnesyl diphosphate] | – | – | – |
| – | (E)-β-farnesene synthase (EBFS) (Mentha x piperita) (protein) MATNGVVISCLREVRPPMTKHAPSMWTDTFSNFSLDDKEQQKCSETIEALKQEARGMLMAATTPLQQMTLIDTLERLGLSFHFETEIEYKIELINAAEDDGFDLFATALRFRLLRQHQRHVSCDVFDKFIDKDGKFEESLSNNVEGLLSLYEAAHVGFREERILQEAVNFTRHHLEGAELDQSPLLIREKVKRALEHPLHRDFPIVYARLFISIYEKDDSRDELLLKLSKVNFKFMQNLYKEELSQLSRWWNTWNLKSKLPYARDRVVEAYVWGVGYHYEPQYSYVRMGLAKGVLICGIMDDTYDNYATLNEAQLFTQVLDKWDRDEAERLPEYMKIVYRFILSIYENYERDAAKLGKSFAAPYFKETVKQLARAFNEEQKWVMERQLPSFQDYVKNSEKTSCIYTMFASIIPGLKSVTQETIDWIKSEPTLATSTAMIGRYWNDTSSQLRESKGGEMLTALDFHMKEYGLTKEEAASKFEGLVEETWKDINKEFIATTNYNVGREIAITFLNYARICEASYSKTDGDAYSDPNVAKANVVALFVDAIVF | 25.0 ± 4.2 | 1.6 ± 0.2 | 1.8 ± 0.2 |
